Results reported in ChEMBL document CHEMBL1201862, “PubChem BioAssay data set” (2004).
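Dose response: 5 concentrations. Exposure: 48 h. Format: 96-well plates. Endpoint: linear interpolation; highest concentration if not reached. Abbreviation: GI50, concentration required for 50% inhibition of growth.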 Calls of active or inactive are those of the source. Cut-off read from the data, not from the text of the source: active = GI50 up to about 1.1 µM and inactive = higher. Where a SMILES comes first, the peptide text is derived from it.

How the values were obtained:
Experiment in all cases: growth of human tumour cells (NCI), 48 h
ACHN = system: ACHN
OVCAR-8 = system: OVCAR-8
IGROV-1 = system: IGROV-1
SW-620 = system: SW-620
SK-MEL-2 = system: SK-MEL-2
EKVX = system: EKVX
M14 = system: M14
K562 = system: K562
HCC 2998 = system: HCC 2998
NCI-H460 = system: NCI-H460
MCF7 = system: MCF7
A498 = system: A498
HCT-15 = system: HCT-15
RPMI-8226 = system: RPMI-8226
KM12 = system: KM12
BT-549 = system: BT-549
HL-60 = system: HL-60
NCI-H522 = system: NCI-H522
SNB-75 = system: SNB-75
SK-OV-3 = system: SK-OV-3

SMILES | GI50 (ACHN) | GI50 (OVCAR-8) | GI50 (IGROV-1) | GI50 (SW-620) | GI50 (SK-MEL-2) | GI50 (EKVX) | GI50 (M14) | GI50 (K562) | GI50 (HCC 2998) | GI50 (NCI-H460) | GI50 (MCF7) | GI50 (A498) | GI50 (HCT-15) [µM] | GI50 (RPMI-8226) | GI50 (KM12) | GI50 (BT-549) | GI50 (HL-60) | GI50 (NCI-H522) | GI50 (SNB-75) | GI50 (SK-OV-3)
O=c1[nH]cnc2c1ncn2[C@@H]1C[C@H]1CO | > 100 µM (inactive) | > 100 µM (inactive) | > 100 µM (inactive) | > 100 µM (inactive) | > 100 µM (inactive) | > 100 µM (inactive) | > 100 µM (inactive) | > 100 µM (inactive) | > 100 µM (inactive) | > 100 µM (inactive) | > 100 µM (inactive) | > 100 µM (inactive) | > 100 | > 100 µM (inactive) | > 100 µM (inactive) | > 100 µM (inactive) | > 100 µM (inactive) | > 100 µM (inactive) | > 100 µM (inactive) | –
COc1nc(SC)nc2c1C(O)n1c(nc3ccccc31)S2 (stereo not given) | 18.4 µM (inactive) | 14.1 µM (inactive) | 40.9 µM (inactive) | 9.14 µM (inactive) | 28.9 µM (inactive) | 36.1 µM (inactive) | 60.4 µM (inactive) | 13.7 µM (inactive) | 6.79 µM (inactive) | 15 µM (inactive) | 1.84 µM (inactive) | 16.3 µM (inactive) | 33.5 | 0.42 µM (active) | 25.4 µM (inactive) | 28.1 µM (inactive) | 12.3 µM (inactive) | 23 µM (inactive) | – | 22.8 µM (inactive)
CCc1c(Cl)nc(Cl)nc1Cl | 0.076 µM (active) | 0.299 µM (active) | 0.542 µM (active) | 0.0449 µM (active) | – | 0.519 µM (active) | 0.0438 µM (active) | 0.0208 µM (active) | 0.214 µM (active) | 1.93 µM (inactive) | 0.0578 µM (active) | 5.79 µM (inactive) | 0.0348 | 0.049 µM (active) | 1.08 µM (active) | 0.0199 µM (active) | 0.206 µM (active) | 0.0132 µM (active) | 1.17 µM (inactive) | 3.07 µM (inactive)
Cc1c(C(=O)Nc2ccccc2)nnn1-c1ccnc2cc(C(F)(F)F)ccc12 | 54.7 µM (inactive) | 76.9 µM (inactive) | > 100 µM (inactive) | > 100 µM (inactive) | > 100 µM (inactive) | 34.7 µM (inactive) | 41.9 µM (inactive) | 37.2 µM (inactive) | 38.1 µM (inactive) | 41.6 µM (inactive) | 56.5 µM (inactive) | 82.8 µM (inactive) | 45.3 | – | 50.8 µM (inactive) | > 100 µM (inactive) | 35 µM (inactive) | 64.7 µM (inactive) | 34.4 µM (inactive) | > 100 µM (inactive)
CC(C)C(/C=C/c1ccc(Cl)c(Cl)c1)=N\NC(=O)N/N=C(/C=C/c1ccc(Cl)c(Cl)c1)C(C)C | > 100 µM (inactive) | > 100 µM (inactive) | > 100 µM (inactive) | > 100 µM (inactive) | – | > 100 µM (inactive) | > 100 µM (inactive) | > 100 µM (inactive) | > 100 µM (inactive) | > 100 µM (inactive) | > 100 µM (inactive) | > 100 µM (inactive) | > 100 | > 100 µM (inactive) | > 100 µM (inactive) | > 100 µM (inactive) | 80 µM (inactive) | > 100 µM (inactive) | > 100 µM (inactive) | > 100 µM (inactive)
CC(C)CC(NC(=O)C(Cc1ccccc1)NC(=O)C(Cc1c[nH]c2ccccc12)NC(=O)CNC(=O)C(N)Cc1ccc(O)cc1)C(=O)O (stereo not given) (H-YGWFL-OH; configuration not given here) | 44.5 µM (inactive) | 46.5 µM (inactive) | 58.7 µM (inactive) | – | 81.3 µM (inactive) | 35.2 µM (inactive) | 47.6 µM (inactive) | – | 34.3 µM (inactive) | 44.4 µM (inactive) | 37.4 µM (inactive) | 32.3 µM (inactive) | 69 | 24.5 µM (inactive) | 24.6 µM (inactive) | > 100 µM (inactive) | 24.3 µM (inactive) | 34 µM (inactive) | 30.8 µM (inactive) | > 100 µM (inactive)
Nc1nc(N)c2nnn(C[C@H]3CC[C@@H](CO)C3)c2n1 | > 100 µM (inactive) | > 100 µM (inactive) | 54.7 µM (inactive) | > 100 µM (inactive) | – | > 100 µM (inactive) | > 100 µM (inactive) | > 100 µM (inactive) | > 100 µM (inactive) | > 100 µM (inactive) | > 100 µM (inactive) | > 100 µM (inactive) | > 100 | > 100 µM (inactive) | > 100 µM (inactive) | > 100 µM (inactive) | > 100 µM (inactive) | > 100 µM (inactive) | > 100 µM (inactive) | > 100 µM (inactive)
Cc1cc2[nH]c3[nH]c(=O)[nH]c(=O)c3c2cc1C | > 100 µM (inactive) | > 100 µM (inactive) | > 100 µM (inactive) | > 100 µM (inactive) | 74.5 µM (inactive) | 20.3 µM (inactive) | > 100 µM (inactive) | – | > 100 µM (inactive) | – | > 100 µM (inactive) | > 100 µM (inactive) | > 100 | > 100 µM (inactive) | > 100 µM (inactive) | > 100 µM (inactive) | > 10 µM (inactive) | > 100 µM (inactive) | > 100 µM (inactive) | > 100 µM (inactive)
CC(C)/C(Cl)=N\OC(=O)Nc1ccccc1F | 12.4 µM (inactive) | 17.2 µM (inactive) | 17.7 µM (inactive) | 1.88 µM (inactive) | 18.1 µM (inactive) | 16.9 µM (inactive) | 5.73 µM (inactive) | 1.95 µM (inactive) | 14.9 µM (inactive) | 18.7 µM (inactive) | 5.64 µM (inactive) | 14.9 µM (inactive) | 16.2 | 6.04 µM (inactive) | 20.8 µM (inactive) | 14.3 µM (inactive) | 1.68 µM (inactive) | – | 10.2 µM (inactive) | 19.2 µM (inactive)
Cc1ccc(C2=NN=C3C(c4ccccc4)=Nc4ccccc4N3C2)cc1 | 16.7 µM (inactive) | 6.07 µM (inactive) | 13.1 µM (inactive) | 5.51 µM (inactive) | 22.6 µM (inactive) | 10.9 µM (inactive) | 3.64 µM (inactive) | 4.61 µM (inactive) | 19.6 µM (inactive) | 3.56 µM (inactive) | 8.38 µM (inactive) | > 53.1 µM (inactive) | 4.73 | 5.98 µM (inactive) | 26.4 µM (inactive) | 20.6 µM (inactive) | 1.92 µM (inactive) | 2.92 µM (inactive) | – | 21 µM (inactive)
c1csc(-c2cscc2-c2cccs2)c1 | > 100 µM (inactive) | 57.4 µM (inactive) | 67.8 µM (inactive) | 48.3 µM (inactive) | – | 58.3 µM (inactive) | 27.7 µM (inactive) | 37.3 µM (inactive) | 22.9 µM (inactive) | > 100 µM (inactive) | 20.2 µM (inactive) | > 100 µM (inactive) | 35.8 | 43.6 µM (inactive) | 22.3 µM (inactive) | 63.4 µM (inactive) | 30.3 µM (inactive) | – | 69.2 µM (inactive) | 32.9 µM (inactive)
N#Cc1c(N)c(C#N)c2c(c1-c1ccc(Cl)cc1)COc1ccccc1-2 | 13.7 µM (inactive) | – | 20.4 µM (inactive) | 32.6 µM (inactive) | 22 µM (inactive) | 9.14 µM (inactive) | 38.6 µM (inactive) | 16.5 µM (inactive) | 17.4 µM (inactive) | 30.3 µM (inactive) | 29 µM (inactive) | 18.2 µM (inactive) | 31.8 | 3.27 µM (inactive) | 28.6 µM (inactive) | 29.9 µM (inactive) | 25.4 µM (inactive) | – | – | 18.4 µM (inactive)
O[C@H]1[C@H](O)[C@H](O)CN2CCC[C@@H](O)[C@H]12 | > 100 µM (inactive) | > 100 µM (inactive) | > 100 µM (inactive) | > 100 µM (inactive) | > 100 µM (inactive) | > 100 µM (inactive) | > 100 µM (inactive) | > 100 µM (inactive) | > 100 µM (inactive) | – | > 100 µM (inactive) | > 100 µM (inactive) | > 100 | > 100 µM (inactive) | > 100 µM (inactive) | > 100 µM (inactive) | > 100 µM (inactive) | > 100 µM (inactive) | 81.1 µM (inactive) | > 100 µM (inactive)
C=C(C)[C@H]1C2=CC(C)=C(O2)[C@@H](O)[C@H](C(=C)C)CCC2=C[C@H]1OC2=O [KALLOLIDE A] | > 100 µM (inactive) | > 100 µM (inactive) | > 100 µM (inactive) | > 100 µM (inactive) | > 100 µM (inactive) | > 100 µM (inactive) | > 100 µM (inactive) | > 100 µM (inactive) | > 100 µM (inactive) | > 100 µM (inactive) | > 100 µM (inactive) | > 100 µM (inactive) | > 100 | > 100 µM (inactive) | > 100 µM (inactive) | > 100 µM (inactive) | > 100 µM (inactive) | 87.7 µM (inactive) | > 100 µM (inactive) | –
COc1cc(NC(C)=O)ccc1C(=O)N/N=C/c1ccc(Cl)cc1Cl | 31.4 µM (inactive) | 48.9 µM (inactive) | 30.2 µM (inactive) | > 100 µM (inactive) | 19.2 µM (inactive) | 32.7 µM (inactive) | 48.1 µM (inactive) | 50.2 µM (inactive) | 57.1 µM (inactive) | – | 4.42 µM (inactive) | 24.1 µM (inactive) | 83 | 65.6 µM (inactive) | 33 µM (inactive) | > 100 µM (inactive) | 46.6 µM (inactive) | 45.2 µM (inactive) | 13.6 µM (inactive) | 29.7 µM (inactive)
